Assay results reported in patent US4386103A, “Dichloroamino acid derivatives useful as potent germicidal and fungicidal agents” (Merck & Co., Inc., priority 1981, dated 1983).

Legend:
Rhizopus oryzae = assay: Contact fungicidal screen, Rhizopus oryzae; format: cell-based; settings: 0.1M NaOAc pH 4.6
Protocol: The organisms used in the Contact Fungicidal Screen are a dermatophyte, trychophyton mentagrophytes, frequently associated with athlete's foot; a yeast, Candida albican, causative agent of thrush and vaginitis; a phycomycete, Rhizopus oryzae, commonly known as black bread mold; an ascomycete, Aspergillus fumagatis, found in chicken droppings and causing lung infections; and another dermatophyte, Microsporum canis, which causes ringworm. These organisms are maintained as stock cultures at 4° C. on agar slants of the following composition: dextrose 2%, Neopeptone (Difco) 1%, agar 2%. Fluid medium of the same nutrient composition (without agar) was used to test the viability of the organisms after exposure to the fungicide. This medium is also known as Sabouraud's medium.
[…]. The mycelial mat is removed from the surface of the agar using a sterile spatula. It is transferred to a heat sterilized glass tissue grinder and macerated with 25 ml of sterile physiological saline. The suspension is then filtered through sterile glass wool. The density of the sporangia spore suspension is determined by counting in a hemacytometer. The suspension is stored at 4° C. until it was used, at which time it was diluted with sterile physiological saline to a density of 5×10^6 spores per ml.
The compounds are weighed into heat sterilized 100 ml volumetric flasks and immediately before screening dissolved in 0.1 M NaOAc pH 4.6 buffer (test solutions).
The Aspergillus, Candida, Microsporum and Rhizopus species are screened in a slightly different manner. Basically, the procedure for the Contact Germicidal Efficiency Screen is utilized. After the test solutions are made up, 5 ml aliquots are pipetted into heat sterilized 25 ml glass stoppered erlenmeyer flasks. The screen is initiated when 0.5 ml of the 5×10^6 cell (spore) per ml suspension is added to the flask containing 5 ml of the test solution. At intervals of 0.5, 2.5, 5.0, 10.0 and 15.0 minutes, a 4 mm loopful of the inoculated test solution is subcultured into 7 mL of sterile fluid Sabouraud's medium and mixed on a vortex, the high dilution serving to stop the action of the compound. The subculture tubes are incubated at 25°-30° C. for ten days with daily observation for mycelial growth. The earliest subculture time at which no growth is present is considered the endpoint and is recorded as the sterilization time.
To insure the viability of the culture, a 0.5 ml aliquot of the 5×10^6 cells (spores) per ml suspension is transferred to 5 ml of the pH 4.6 buffer. A loopful of the inoculated buffer is then subcultured to 7 ml of fluid Sabouraud's medium and incubated at 25°-30° C. for ten days. To insure that the dilution of the test solution into the subculture medium does stop the action, a loopful of the test solution and a loopful of the inoculated buffer are transferred into the same subculture tube. This tube is also incubated at 25°-30° C. for ten days.

Microsporum canis = assay: Contact fungicidal screen, Microsporum canis; format: cell-based; settings: 0.1M NaOAc pH 4.6
Protocol: The organisms used in the Contact Fungicidal Screen are a dermatophyte, trychophyton mentagrophytes, frequently associated with athlete's foot; a yeast, Candida albican, causative agent of thrush and vaginitis; a phycomycete, Rhizopus oryzae, commonly known as black bread mold; an ascomycete, Aspergillus fumagatis, found in chicken droppings and causing lung infections; and another dermatophyte, Microsporum canis, which causes ringworm. These organisms are maintained as stock cultures at 4° C. on agar […] of the following composition: dextrose 2%, Neopeptone (Difco) 1%, agar 2%. Fluid medium of the same nutrient composition (without agar) was used to test the viability of the organisms after exposure to the fungicide. This medium is also known as Sabouraud's medium. Sabouraud's agar plate cultures of Aspergillus fumigatus, Microsporum canis, and a different culture of Trychophyton mentagrophytes are prepared by planting an inoculum at the center of an agar plate and incubating at 25°-30° C. for seven to ten days. The mycelial mats are removed from the surface of the agar and prepared in the same manner as the Rhizopus culture. The compounds are weighed into heat sterilized 100 ml volumetric flasks and immediately before screening dissolved in 0.1 M NaOAc pH 4.6 buffer (test solutions). The Aspergillus, Candida, Microsporum and Rhizopus species are screened in a slightly different manner. Basically, the procedure for the Contact Germicidal Efficiency Screen is utilized. After the test solutions are made up, 5 ml aliquots are pipetted into heat sterilized 25 ml glass stoppered erlenmeyer flasks. The screen is initiated when 0.5 ml of the 5×10^6 cell (spore) per ml suspension is added to the flask containing 5 ml of the test solution. […] The subculture tubes are incubated at 25°-30° C. for ten days with daily observation for mycelial growth. The earliest subculture time at which no growth is present is considered the endpoint and is recorded as the sterilization time. To insure the viability of the culture, a 0.5 ml aliquot of the 5×10^6 cells (spores) per ml suspension is transferred to 5 ml of the pH 4.6 buffer. A loopful of the inoculated buffer is then subcultured to 7 ml of fluid Sabouraud's medium and incubated at 25°-30° C. for ten days. To insure that the dilution of the test solution into the subculture medium does stop the action, a loopful of the test solution and a loopful of the inoculated buffer are transferred into the same subculture tube. This tube is also incubated at 25°-30° C. for ten days.

For `CC(C)(CC(=O)O)N(Cl)Cl` [(II)], the “Sterilization Time” value (Rhizopus oryzae; 10 PPM) was 15 min, the “Sterilization Time” value (Rhizopus oryzae; 100 PPM) was 15 min and the “Sterilization Time” value (Rhizopus oryzae; 1000 PPM) was 10.0 min. The “Sterilization Time” value (Microsporum canis; 10 PPM) was 15 min, the “Sterilization Time” value (Microsporum canis; 100 PPM) was 10.0 min and the “Sterilization Time” value (Microsporum canis; 1000 PPM) was 2.5 min.
In the case of `CC(C)(CCC(=O)O)N(Cl)Cl` [(III), 4-Dichloroamino-4-methylvaleric acid], the “Sterilization Time” value (Rhizopus oryzae; 10 PPM) is reported as 15 min, the “Sterilization Time” value (Rhizopus oryzae; 100 PPM) is reported as 15 min and the “Sterilization Time” value (Rhizopus oryzae; 1000 PPM) is reported as 10.0 min. For the same molecule, the “Sterilization Time” value (Microsporum canis; 10 PPM) was 15 min, the “Sterilization Time” value (Microsporum canis; 100 PPM) was 5.0 min and the “Sterilization Time” value (Microsporum canis; 1000 PPM) was 0.5 min.
For `CC(C)(COC(=O)CCC(=O)O)N(Cl)Cl` [(IV), 2-Dichloroamino-2-methylpropylhemisuccinate], the “Sterilization Time” value (Rhizopus oryzae; 10 PPM) was 15 min, the “Sterilization Time” value (Rhizopus oryzae; 100 PPM) was 15 min and the “Sterilization Time” value (Rhizopus oryzae; 1000 PPM) was 15 min. For the same molecule, the “Sterilization Time” value (Microsporum canis; 10 PPM) was 15 min, the “Sterilization Time” value (Microsporum canis; 100 PPM) was 15.0 min and the “Sterilization Time” value (Microsporum canis; 1000 PPM) was 2.5 min.
In the case of `CC(C)(COC(=O)CCCC(=O)O)N(Cl)Cl` [(V), 2-dichloramino-2-methylpropyl-hemiglutarate], the “Sterilization Time” value (Rhizopus oryzae; 10 PPM) is reported as 15 min, the “Sterilization Time” value (Rhizopus oryzae; 100 PPM) is reported as 15 min and the “Sterilization Time” value (Rhizopus oryzae; 1000 PPM) is reported as 15 min. For the same molecule, the “Sterilization Time” value (Microsporum canis; 10 PPM) was 15 min, the “Sterilization Time” value (Microsporum canis; 100 PPM) was 5.0 min and the “Sterilization Time” value (Microsporum canis; 1000 PPM) was 2.5 min.
